Measurements from patent publication US4443603A, “Piperazine derivatives, of aromatic acids” (Kowa Company Limited, priority 1981, dated 1984).

Legend:
Type in all cases: biochemical
Chymotrypsin = Chymotrypsin (Bos taurus, UniProt P00766); assay: Chymotrypsin inhibitory effects (Hestrin color method, acetyl-L-tyrosine ethyl ester substrate); settings: pH 8.0, 10 min preincubation, 30 min at 37° C., ethyl ester of acetyl-L-tyrosine; read-out: 50% Inhibitory Concentration, Chymotrypsin
Protocol: Following the procedure of Muramatsu et al [The Journal of Biochemistry, 62, 408 (1967)], a mixture of 0.1 ml of a dimethylsulfoxide solution of each test compound, 0.1 ml of water and 0.1 ml of a buffer solution containing chymotrypsin in an amount of 10 μg/ml (a 0.1 mole trishydrochloric acid buffer solution, pH 8.0) was incubated for 10 minutes, combined with 0.1 ml of a buffer solution containing 25 millimoles of an ethyl ester of acetyl-L-tyrosine and then reacted with the ethyl ester at 37° C. for 30 minutes. The remaining substrate was caused to develop a color in accordance with the Hestrin method, and the amount was determined by measuring the absorbance at 530 nm. As a control compound, use was made of tosylphenylalanine chloromethyl ketone.

Trypsin = target: T1, Trypsin (Bos taurus, UniProt P00760); assay: Trypsin inhibitory effects (Hestrin color method, tosylarginine methyl ester substrate); settings: pH 8.0, 10 min preincubation, 30 min at 37° C., methyl ester of tosylarginine; read-out: 50% Inhibitory Concentration, Trypsin
T1 sequence (P00760 24-246): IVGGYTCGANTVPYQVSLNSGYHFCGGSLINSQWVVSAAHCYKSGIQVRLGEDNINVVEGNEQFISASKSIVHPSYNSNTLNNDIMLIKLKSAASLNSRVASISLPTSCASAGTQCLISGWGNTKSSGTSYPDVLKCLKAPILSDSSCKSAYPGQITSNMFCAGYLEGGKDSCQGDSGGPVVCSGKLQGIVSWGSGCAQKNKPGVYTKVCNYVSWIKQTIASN
Protocol: Following the procedure of Muramatsu et al [The Journal of Biochemistry, 58, 214 (1967)], a mixture of 0.1 ml of a dimethylsufoxide solution of each test compound, 0.1 ml of a buffer solution (obtained by dissolving 10 millimoles of calcium chloride in a 0.1 mole trishydrochloric acid buffer solution, pH 8.0) and 0.1 ml of a buffer solution containing trypsin in an amount of 2.5 μg/ml was incubated for 10 minutes, mixed with 0.2 ml of a buffer solution containing 25 millimoles of a methyl ester of tosylarginine and then reacted with the methyl ester at 37° C. for 30 minutes. The remaining substrate was caused to develop a color in accordance with the Hestrin method, and the amount was determined by measuring the absorbance at 530 nm.

Thrombin = Thrombin (Homo sapiens, UniProt P00734); assay: Thrombin inhibitory effects (Hestrin color method, tosylarginine methyl ester substrate); settings: pH 7.4, 10 min preincubation, 30 min at 37° C., methyl ester of tosylarginine; read-out: 50% Inhibitory Concentration, Thrombin
Protocol: Following the procedure of Tamura et al [Biochim. Biophys. Acta, 484, 417 (1977)], a mixture of 0.1 ml of a dimethylsulfoxide solution of each test compound, 0.1 ml of a buffer solution (a 0.1 mole sodium phosphate buffer, pH 7.4) and 0.1 ml of a buffer solution containing thrombin in an amount of 37.5 units/ml was incubated for 10 minutes, mixed with 0.2 ml of a buffer solution containing 25 millimoles of a methyl ester of tosylarginine and then reacted with the methyl ester at 37° C. for 30 minutes. The remaining substrate was caused to develop a color in accordance with the Hestrin method, and the amount was determined by measuring the absorbance at 530 nm.

Compound	IC50 (Chymotrypsin) [µM]	IC50 (Trypsin) [µM]	IC50 (Thrombin) [µM]
Cc1ccc(S(=O)(=O)N[C@@H](Cc2ccccc2)C(=O)CCl)cc1 [TPCK, Tosylphenylalanine chloromethyl ketone, reference compound]	500		
COc1ccc2[nH]c(C)c(CC(=O)Oc3ccc(C(=O)OCCN4CCN(CCN5CCOCC5)CC4)cc3)c2c1 [Test Compound 1, 4-{[2-[4-[2-(Morpholino)ethyl]piperazino]ethyl]oxycarbonyl}phenyl 5-methoxy-2-methylindole-3-acetate]	0.1	50	100
COc1ccc2c(c1)c(CC(=O)Oc1ccc(C(=O)OCCN3CCN(CC(=O)N4CCCC4)CC3)cc1)c(C)n2C [Test Compound 2, 4-{[2-[4-(Pyrrolidinocarbonylmethyl)piperazino]ethyl]oxycarbonyl}phenyl 1,2-dimethyl-5-methoxyindole-3-acetate]	0.07	500	900
O=C(OCCN1CCN(CC(=O)N2CCOCC2)CC1)c1ccc(OC(=O)C2CCCc3ccccc32)cc1 (stereo not shown) [Test Compound 3, 4-{[2-[4-(Morpholinocarbonylmethyl)piperazino]ethyl]oxycarbonyl}phenyl 1,2,3,4-tetrahydro-1-naphthoate]	0.6	500	90
CN(C)C(=O)CN1CCN(CCOC(=O)c2ccc(OC(=O)Cc3cccc4ccccc34)cc2)CC1 [Test Compound 4, 4-{[2-[4-(Dimethylaminocarbonylmethyl)piperazino]ethyl]oxycarbonyl}phenyl 1-naphthylacetate]	0.3	> 1000	9
O=C(Cc1cccc2ccccc12)Oc1ccc(C(=O)OCCN2CCN(CC(=O)N3CCCCC3)CC2)cc1 [Test Compound 5, 4-{[2-[4-(Piperidinocarbonylmethyl)piperazino]ethyl]oxycarbonyl}phenyl 1-naphtylacetate]	0.3	> 1000	9
COc1ccc2[nH]c(C)c(CC(=O)Oc3ccc(C(=O)OCCN4CCN(CC(=O)N(C)C)CC4)cc3)c2c1 [Test Compound 6, 4-{[2-[4-(Dimethylaminocarbonylmethyl)piperazino]ethyl]oxycarbonyl}phenyl 5-methoxy-2-methylindole-3-acetate]	0.5	80	60
COc1ccc2[nH]c(C)c(CC(=O)Oc3ccc(C(=O)OCCN4CCN(CC(=O)N5CCOCC5)CC4)cc3)c2c1 [Test Compound 7, 4-{[2-[4-(Morpholinocarbonylmethyl)piperazino]ethyl]oxycarbonyl}phenyl 5-methoxy-2-methylindole-3-acetate]	0.6	200	70
COc1ccc2[nH]cc(CC(=O)Oc3ccc(C(=O)OCCN4CCN(CC(=O)N5CCCC5)CC4)cc3)c2c1 [Test Compound 8, 4-{[2-[4-(Pyrrolidinocarbonylmethyl)piperazino]ethyl]oxycarbonyl}phenyl 5-methoxyindole-3-acetate]	0.05	> 1000	600
COc1ccc2[nH]c(C)c(CC(=O)Oc3ccc(C(=O)OCCN4CCN(C)CC4)cc3)c2c1 [Test Compound 9, 4-{[2-(4-Methylpiperazino)ethyl]oxycarbonyl}phenyl 5-methoxy-2-methylindole-3-acetate]	0.06	300	40
COc1ccc2[nH]c(C)c(CC(=O)Oc3ccc(C=CC(=O)N4CCN(CC(=O)N5CCCC5)CC4)cc3)c2c1 [Test Compound 10, 1-[4-(5-Methoxy-2-methylindole-3-acetyloxy)cynnamoyl]-4-(pyrrolidinocarbonylmethyl)piperazine]	0.8	600	300
COc1ccc2[nH]c(C)c(CC(=O)Oc3ccc(C(=O)NCCN4CCN(CC(=O)N5CCOCC5)CC4)cc3)c2c1 [Test Compound 11, 4-{[2-[4-(Morpholinocarbonylmethyl)piperazino]ethyl]carbamoyl}phenyl 5-methoxy-2-methylindole-3-acetate]	0.6	80	100
